Reference: ChEMBL document CHEMBL1201861, “Genomics of Drug Sensitity in Cancer screening data, Wellcome Trust Sanger Institute”

Columns and labels:
Assay in all cases: cells
Type in all cases: functional, cell-based
Conditions in all cases: Homo sapiens
LS-123 = tested on: LS-123
Description: SANGER: Inhibition of human LS-123 cell growth in a cell viability assay.

NKM-1 = tested on: NKM-1;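 note: growth inhibition of NKM-1 cells, read out with a cell viability assay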
Description: SANGER: Inhibition of human NKM-1 cell growth in a cell viability assay.

MN-60 = tested on: MN-60;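 note: growth inhibition of the MN-60 cell line, determined with a cell viability assay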
Description: SANGER: Inhibition of human MN-60 cell growth in a cell viability assay.

SH-4 = tested on: SH-4;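 note: growth inhibition of SH-4 cells, read out with a cell viability assay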
Description: SANGER: Inhibition of human SH-4 cell growth in a cell viability assay.

NCI-H1299 = tested on: NCI-H1299;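 note: growth inhibition of human NCI-H1299 cells, read out by a cell viability assay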
Description: SANGER: Inhibition of human NCI-H1299 cell growth in a cell viability assay.

no-11 = tested on: no-11;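 note: growth inhibition of human NO-11 cells, read out with a cell viability assay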
Description: SANGER: Inhibition of human no-11 cell growth in a cell viability assay.

L-363 = tested on: L-363
Description: SANGER: Inhibition of human L-363 cell growth in a cell viability assay.

DU-4475 = tested on: DU-4475
Description: SANGER: Inhibition of human DU-4475 cell growth in a cell viability assay.

NCI-H1650 = tested on: NCI-H1650;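 note: growth inhibition of human NCI-H1650 cells measured by a cell viability assay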
Description: SANGER: Inhibition of human NCI-H1650 cell growth in a cell viability assay.

COLO-320-HSR = tested on: COLO-320-HSR;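 note: growth inhibition of COLO-320-HSR cells, determined with a cell viability assay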
Description: SANGER: Inhibition of human COLO-320-HSR cell growth in a cell viability assay.

PSN1 = tested on: PSN1;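 note: suppression of growth of human PSN1 cells, read out by a cell viability assay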
Description: SANGER: Inhibition of human PSN1 cell growth in a cell viability assay.

BT-474 = tested on: BT-474
Description: SANGER: Inhibition of human BT-474 cell growth in a cell viability assay.

SJSA-1 = tested on: SJSA-1;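 note: growth inhibition of human SJSA-1 cells, read out through a cell viability measurement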
Description: SANGER: Inhibition of human SJSA-1 cell growth in a cell viability assay.

NB5 = tested on: NB5;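 note: growth inhibition of NB5 cells, read out as cell viability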
Description: SANGER: Inhibition of human NB5 cell growth in a cell viability assay.

BE-13 = tested on: BE-13;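 note: growth inhibition of human BE-13 cells, measured with a cell viability assay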
Description: SANGER: Inhibition of human BE-13 cell growth in a cell viability assay.

K562 = tested on: K562
Description: SANGER: Inhibition of human K-562 cell growth in a cell viability assay.

EW-18 = tested on: EW-18;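 note: growth inhibition of EW-18 cells, read out by a cell viability assay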
Description: SANGER: Inhibition of human EW-18 cell growth in a cell viability assay.

ES7 = tested on: ES7;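 note: growth inhibition of cultured human ES7 cells, read out as cell viability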
Description: SANGER: Inhibition of human ES7 cell growth in a cell viability assay.

ML-2 = tested on: ML-2;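 note: growth inhibition of ML-2 cells, measured with a cell viability readout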
Description: SANGER: Inhibition of human ML-2 cell growth in a cell viability assay.

SK-MEL-2 = tested on: SK-MEL-2;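 note: growth inhibition of human SK-MEL-2 cells measured with a cell viability assay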
Description: SANGER: Inhibition of human SK-MEL-2 cell growth in a cell viability assay.

NCI-H446 = tested on: NCI-H446;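 note: growth inhibition of NCI-H446 cells determined by a cell viability assay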
Description: SANGER: Inhibition of human NCI-H446 cell growth in a cell viability assay.

SNU-5 = tested on: SNU-5;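 note: cell viability readout used to measure growth inhibition in human NCI-SNU-5 cells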
Description: SANGER: Inhibition of human NCI-SNU-5 cell growth in a cell viability assay.

UACC-257 = tested on: UACC-257
Description: SANGER: Inhibition of human UACC-257 cell growth in a cell viability assay.

KNS-42 = tested on: KNS-42;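 note: growth inhibition of KNS-42 cells, read out with a cell viability assay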
Description: SANGER: Inhibition of human KNS-42 cell growth in a cell viability assay.

HT = tested on: HT
Description: SANGER: Inhibition of human HT cell growth in a cell viability assay.

KM-H2 = tested on: KM-H2;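 note: growth inhibition of KM-H2 cells, read out by a cell viability assay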
Description: SANGER: Inhibition of human KM-H2 cell growth in a cell viability assay.

GI-ME-N = tested on: GI-ME-N;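 note: growth inhibition of human GI-ME-N cells, read out with a cell viability assay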
Description: SANGER: Inhibition of human GI-ME-N cell growth in a cell viability assay.

GOTO = tested on: GOTO;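 note: growth inhibition of GOTO cells, read out by a cell viability assay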
Description: SANGER: Inhibition of human GOTO cell growth in a cell viability assay.

SF-268 = tested on: SF-268;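 note: growth inhibition of SF-268 cells determined with a cell viability assay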
Description: SANGER: Inhibition of human SF268 cell growth in a cell viability assay.

RXF 393 = tested on: RXF 393;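 note: growth inhibition of human RXF 393 cells, read out with a cell viability assay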
Description: SANGER: Inhibition of human RXF393 cell growth in a cell viability assay.

A101D = tested on: A101D;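 note: growth inhibition of the cell line, measured with a viability assay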
Description: SANGER: Inhibition of human A101D cell growth in a cell viability assay.

COR-L23 = tested on: COR-L23;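 note: cell viability assay measuring how strongly compounds suppress growth of COR-L23 cells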
Description: SANGER: Inhibition of human COR-L23 cell growth in a cell viability assay.

NB10 = tested on: NB10;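 note: growth inhibition of NB10 cells, read out by a cell viability assay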
Description: SANGER: Inhibition of human NB10 cell growth in a cell viability assay.

KNS-81-FD = tested on: KNS-81-FD;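 note: growth inhibition of KNS-81-FD cells, read out with a cell viability assay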
Description: SANGER: Inhibition of human KNS-81-FD cell growth in a cell viability assay.

A2780 = tested on: A2780;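 note: growth inhibition of A2780 cells, read out with a cell viability assay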
Description: SANGER: Inhibition of human A2780 cell growth in a cell viability assay.

P12-Ichikawa = tested on: P12-Ichikawa
COLO-800 = tested on: COLO-800;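 note: growth inhibition of COLO-800 cells, read out with a cell viability assay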
Description: SANGER: Inhibition of human COLO-800 cell growth in a cell viability assay.

SK-OV-3 = tested on: SK-OV-3;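 note: growth inhibition of SK-OV-3 human cells, read out with a cell viability assay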
Description: SANGER: Inhibition of human SK-OV-3 cell growth in a cell viability assay.

MEG-01 = tested on: MEG-01;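 note: growth inhibition of MEG-01 cells, read out by a cell viability assay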
Description: SANGER: Inhibition of human MEG-01 cell growth in a cell viability assay.

NCI-H2170 = tested on: NCI-H2170;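 note: cell viability assay measuring growth inhibition of human NCI-H2170 cancer cells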
Description: SANGER: Inhibition of human NCI-H2170 cell growth in a cell viability assay.

RMG-I = tested on: RMG-I;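 note: growth inhibition of human RMG-I cells, read out with a cell viability assay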
Description: SANGER: Inhibition of human RMG-I cell growth in a cell viability assay.

HL-60 = tested on: HL-60;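 note: growth inhibition of human HL-60 cells, read out with a cell viability assay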
Description: SANGER: Inhibition of human HL-60 cell growth in a cell viability assay.

D-263MG = tested on: D-263MG
Description: SANGER: Inhibition of human D-263MG cell growth in a cell viability assay.

VA-ES-BJ = tested on: VA-ES-BJ;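 note: growth inhibition of the VA-ES-BJ cell line, read out by a cell viability assay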
Description: SANGER: Inhibition of human VA-ES-BJ cell growth in a cell viability assay.

GT3TKB = tested on: GT3TKB;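 note: growth inhibition of the cell line, read out with a cell viability assay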
Description: SANGER: Inhibition of human GT3TKB cell growth in a cell viability assay.

EM-2 = tested on: EM-2;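 note: growth inhibition of EM-2 cells, read out with a cell viability assay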
Description: SANGER: Inhibition of human EM-2 cell growth in a cell viability assay.

EW-11 = tested on: EW-11;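 note: growth inhibition of human EW-11 cells, measured with a cell viability assay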
Description: SANGER: Inhibition of human EW-11 cell growth in a cell viability assay.

NTERA-2-cl-D1 = tested on: NTERA-2-cl-D1;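 note: inhibition of cell growth, measured with a cell viability assay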
Description: SANGER: Inhibition of human NTERA-S-cl-D1 cell growth in a cell viability assay.

LB2241-RCC = tested on: LB2241-RCC;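 note: cell viability assay measuring how strongly the cultured human renal carcinoma line is prevented from growing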
Description: SANGER: Inhibition of human LB2241-RCC cell growth in a cell viability assay.

IST-MEL1 = tested on: IST-MEL1;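 note: growth inhibition of the cell line, read out with a cell viability assay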
Description: SANGER: Inhibition of human IST-MEL1 cell growth in a cell viability assay.

IST-MES1 = tested on: IST-MES1;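 note: growth inhibition of IST-MES1 cells, measured with a cell viability assay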
Description: SANGER: Inhibition of human IST-MES1 cell growth in a cell viability assay.

ALL-PO = tested on: ALL-PO;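 note: growth inhibition of ALL-PO cells, read out by a cell viability assay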
Description: SANGER: Inhibition of human ALL-PO cell growth in a cell viability assay.

OVCAR-5 = tested on: OVCAR-5;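 note: growth inhibition of human OVCAR-5 cells, read out with a cell viability assay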
Description: SANGER: Inhibition of human OVCAR-5 cell growth in a cell viability assay.

KE-37 = tested on: KE-37;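 note: growth inhibition of KE-37 cells, read out with a cell viability assay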
Description: SANGER: Inhibition of human KE-37 cell growth in a cell viability assay.

ES4 = tested on: ES4;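 note: growth inhibition of human ES4 cells, read out by a cell viability assay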
Description: SANGER: Inhibition of human ES4 cell growth in a cell viability assay.

SF-539 = tested on: SF-539;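 note: Read-out is a cell viability assay, with IC50 reflecting inhibition of cell growth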
Description: SANGER: Inhibition of human SF539 cell growth in a cell viability assay.

KYSE-410 = tested on: KYSE-410;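 note: growth inhibition of KYSE-410 cells, measured through a cell viability readout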
Description: SANGER: Inhibition of human KYSE-410 cell growth in a cell viability assay.

TE-10 = tested on: TE-10;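 note: growth inhibition of TE-10 cells, measured by a cell viability assay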
Description: SANGER: Inhibition of human TE-10 cell growth in a cell viability assay.

Becker = tested on: Becker
Description: SANGER: Inhibition of human Becker cell growth in a cell viability assay.

AM-38 = tested on: AM-38
Description: SANGER: Inhibition of human AM-38 cell growth in a cell viability assay.

A2058 = tested on: A2058
Description: SANGER: Inhibition of human A2058 cell growth in a cell viability assay.

LB373-MEL-D = tested on: LB373-MEL-D
Description: SANGER: Inhibition of human LB373-MEL-D cell growth in a cell viability assay.

MMAC-SF = tested on: MMAC-SF
Description: SANGER: Inhibition of human MMAC-SF cell growth in a cell viability assay.

CC(=O)c1c(C)c2cnc(Nc3ccc(N4CCNCC4)cn3)nc2n(C2CCCC2)c1=O [PALBOCICLIB]
IC50 (LS-123): > 4000 nM
IC50 (NKM-1): 412 nM
IC50 (MN-60): 2310 nM
IC50 (SH-4): > 4000 nM
IC50 (NCI-H1299): 3050 nM
IC50 (no-11): > 4000 nM
IC50 (L-363): 1870 nM
IC50 (DU-4475): > 4000 nM
IC50 (NCI-H1650): > 4000 nM
IC50 (COLO-320-HSR): > 4000 nM
IC50 (PSN1): > 4000 nM
IC50 (BT-474): > 4000 nM
IC50 (SJSA-1): 2380 nM
IC50 (NB5): > 4000 nM
IC50 (BE-13): 444 nM
IC50 (K562): > 4000 nM
IC50 (EW-18): > 4000 nM
IC50 (ES7): 273 nM
IC50 (ML-2): 1210 nM
IC50 (SK-MEL-2): > 4000 nM
IC50 (NCI-H446): > 4000 nM
IC50 (SNU-5): > 4000 nM
IC50 (UACC-257): > 4000 nM
IC50 (KNS-42): > 4000 nM
IC50 (HT): > 4000 nM
IC50 (KM-H2): 696 nM
IC50 (GI-ME-N): > 4000 nM
IC50 (GOTO): > 4000 nM
IC50 (SF-268): 2230 nM
IC50 (RXF 393): 813 nM
IC50 (A101D): 3770 nM
IC50 (COR-L23): 1230 nM
IC50 (NB10): 599 nM
IC50 (KNS-81-FD): > 4000 nM
IC50 (A2780): > 4000 nM
IC50 (P12-Ichikawa): 96 nM
IC50 (COLO-800): 898 nM
IC50 (SK-OV-3): > 4000 nM
IC50 (MEG-01): > 4000 nM
IC50 (NCI-H2170): > 4000 nM
IC50 (RMG-I): > 4000 nM
IC50 (HL-60): 341 nM
IC50 (D-263MG): 717 nM
IC50 (VA-ES-BJ): 732 nM
IC50 (GT3TKB): 2590 nM
IC50 (EM-2): 651 nM
IC50 (EW-11): > 4000 nM
IC50 (NTERA-2-cl-D1): > 4000 nM
IC50 (LB2241-RCC): 1190 nM
IC50 (IST-MEL1): > 4000 nM
IC50 (IST-MES1): 3830 nM
IC50 (ALL-PO): > 4000 nM
IC50 (OVCAR-5): 900 nM
IC50 (KE-37): 2090 nM
IC50 (ES4): 2450 nM
IC50 (SF-539): > 4000 nM
IC50 (KYSE-410): > 4000 nM
IC50 (TE-10): > 4000 nM
IC50 (Becker): 2960 nM
IC50 (AM-38): > 4000 nM

Cn1c(=O)n(-c2ccc(C(C)(C)C#N)cc2)c2c3cc(-c4cnc5ccccc5c4)ccc3ncc21 [DACTOLISIB]
IC50 (LS-123): 92.2 nM
IC50 (NKM-1): 54.8 nM
IC50 (MN-60): 38 nM
IC50 (SH-4): 75.2 nM
IC50 (NCI-H1299): 150 nM
IC50 (no-11): 113 nM
IC50 (L-363): 10.7 nM
IC50 (DU-4475): 9.44 nM
IC50 (NCI-H1650): 204 nM
IC50 (COLO-320-HSR): 403 nM
IC50 (A2058): 33.2 nM
IC50 (PSN1): 44.4 nM
IC50 (BT-474): 236 nM
IC50 (SJSA-1): 38.5 nM
IC50 (NB5): 40.6 nM
IC50 (BE-13): 31.8 nM
IC50 (K562): > 2000 nM
IC50 (EW-18): 31.9 nM
IC50 (ES7): 18.1 nM
IC50 (ML-2): 60.6 nM
IC50 (SK-MEL-2): 76.7 nM
IC50 (NCI-H446): 95.1 nM
IC50 (SNU-5): 337 nM
IC50 (UACC-257): 214 nM
IC50 (KNS-42): 144 nM
IC50 (HT): 41 nM
IC50 (KM-H2): 171 nM
IC50 (GI-ME-N): 29.9 nM
IC50 (GOTO): 250 nM
IC50 (SF-268): 102 nM
IC50 (RXF 393): 21.4 nM
IC50 (A101D): 39 nM
IC50 (COR-L23): 49.2 nM
IC50 (NB10): 240 nM
IC50 (KNS-81-FD): 19.5 nM
IC50 (A2780): 106 nM
IC50 (P12-Ichikawa): 15.1 nM
IC50 (COLO-800): 32.9 nM
IC50 (SK-OV-3): 100 nM
IC50 (MEG-01): 63.5 nM
IC50 (NCI-H2170): 115 nM
IC50 (RMG-I): 468 nM
IC50 (HL-60): 123 nM
IC50 (D-263MG): 29.3 nM
IC50 (VA-ES-BJ): 17.8 nM
IC50 (GT3TKB): 118 nM
IC50 (EM-2): 54.4 nM
IC50 (EW-11): 96.9 nM
IC50 (NTERA-2-cl-D1): 43 nM
IC50 (LB2241-RCC): 14 nM
IC50 (IST-MEL1): 18.8 nM
IC50 (IST-MES1): 237 nM
IC50 (ALL-PO): 416 nM
IC50 (OVCAR-5): 35.5 nM
IC50 (KE-37): 58.8 nM
IC50 (ES4): 21.1 nM
IC50 (SF-539): 52.3 nM
IC50 (KYSE-410): 59.5 nM
IC50 (TE-10): 407 nM
IC50 (Becker): 34.2 nM
IC50 (AM-38): 69.3 nM

CC[C@@]1(O)C(=O)OCc2c1cc1n(c2=O)Cc2cc3ccccc3nc2-1 [CAMPTOTHECIN]
IC50 (LS-123): > 100 nM
IC50 (NKM-1): 0.441 nM
IC50 (MN-60): 5.08 nM
IC50 (SH-4): 59.8 nM
IC50 (NCI-H1299): 9.43 nM
IC50 (L-363): 1.87 nM
IC50 (DU-4475): 3.07 nM
IC50 (COLO-320-HSR): 62.1 nM
IC50 (A2058): 3.6 nM
IC50 (LB373-MEL-D): 91.2 nM
IC50 (PSN1): 3.07 nM
IC50 (BT-474): > 100 nM
IC50 (SJSA-1): 18 nM
IC50 (NB5): 1.92 nM
IC50 (BE-13): 4.56 nM
IC50 (K562): > 100 nM
IC50 (ES7): 0.0254 nM
IC50 (MMAC-SF): 38.4 nM
IC50 (ML-2): 2.16 nM
IC50 (SK-MEL-2): 54.8 nM
IC50 (NCI-H446): 56.6 nM
IC50 (SNU-5): 42.7 nM
IC50 (KNS-42): 33.1 nM
IC50 (HT): 29.7 nM
IC50 (KM-H2): 55.7 nM
IC50 (GI-ME-N): 33.9 nM
IC50 (GOTO): 0.706 nM
IC50 (SF-268): 3.38 nM
IC50 (RXF 393): 4.66 nM
IC50 (COR-L23): 6.85 nM
IC50 (NB10): 0.614 nM
IC50 (KNS-81-FD): 19.4 nM
IC50 (A2780): 2.9 nM
IC50 (P12-Ichikawa): 0.102 nM
IC50 (COLO-800): 0.428 nM
IC50 (SK-OV-3): > 100 nM
IC50 (MEG-01): 39.5 nM
IC50 (NCI-H2170): 13.7 nM
IC50 (HL-60): 3.73 nM
IC50 (D-263MG): 9.11 nM
IC50 (VA-ES-BJ): 3.47 nM
IC50 (GT3TKB): 1.76 nM
IC50 (EM-2): 4.08 nM
IC50 (EW-11): 2.66 nM
IC50 (NTERA-2-cl-D1): 0.274 nM
IC50 (LB2241-RCC): 2.08 nM
IC50 (IST-MEL1): 3.81 nM
IC50 (IST-MES1): 10.6 nM
IC50 (ALL-PO): 1.53 nM
IC50 (OVCAR-5): 43.3 nM
IC50 (KE-37): 1.54 nM
IC50 (ES4): 1.47 nM
IC50 (SF-539): 9.01 nM
IC50 (KYSE-410): 78.1 nM
IC50 (Becker): 23.3 nM
IC50 (AM-38): 4.41 nM
